# Where a name gives a salt, the structure may show the parent alone. Active and inactive are the calls of the source.
# Experiments:
# [1] = biological target: G-protein coupled receptor 183 (Homo sapiens, UniProt P32249); test: SAR confirmation of small molecule antagonists of the EBI2 receptor via a luminescent beta-arrestin assa.; type: functional
# [2] = Glucagon-like peptide 1 release potency, NCI-H716 cell line, dose-response, half-maximal inhibitory concentration (AID 1117344); type: functional, cell-based
# [3] = half-maximal inhibitory concentration for glucagon-like peptide-1 release, STC-1 cell line, dose-response (AID 1117345); type: functional, cell-based
# cells = type: functional, cell-based; settings: INS-1E
# [4] = Dose-response inhibition of insulin secretion in a rat insulinoma line at 5 mM glucose (AID 1117331); type: functional, cell-based; settings: INS-1E
# Sequence of G-protein coupled receptor 183 (P32249 whole entry): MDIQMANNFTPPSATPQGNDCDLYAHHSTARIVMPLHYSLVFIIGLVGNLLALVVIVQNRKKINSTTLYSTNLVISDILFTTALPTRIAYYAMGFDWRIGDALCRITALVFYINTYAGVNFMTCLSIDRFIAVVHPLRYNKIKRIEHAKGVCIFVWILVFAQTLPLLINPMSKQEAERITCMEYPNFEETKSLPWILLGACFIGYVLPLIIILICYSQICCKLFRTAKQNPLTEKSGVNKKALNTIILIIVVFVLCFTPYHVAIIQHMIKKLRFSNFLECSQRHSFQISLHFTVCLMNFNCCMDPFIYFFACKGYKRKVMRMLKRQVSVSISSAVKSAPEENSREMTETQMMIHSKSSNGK
IC50 [1],Compound,IC50 (cells),IC50 [4],further results
0.00261 µM (active),O=C(/C=C/c1ccc(Br)cc1)N1CCN(Cc2cccc(F)c2)CC1,–,–,–
0.0216 µM (active),O=C(/C=C/c1ccccc1)N1CCN(Cc2ccc(F)cc2)CC1,–,–,–
–,CC(=O)NO [ACETOHYDROXAMIC ACID],–,–,IC50 [2]: > 40 µM (inactive); IC50 [3]: > 40 µM (inactive)
–,CN1CCCN(C(c2ccccc2)c2ccc(Cl)cc2)CC1 (stereo not drawn) [HOMOCHLORCYCLIZINE],> 33.3 µM (inactive),> 3.7 µM (inactive),–
–,CN(C)C/C=C(/c1ccc(Br)cc1)c1cccnc1 [ZIMELDINE HYDROCHLORIDE],> 33.3 µM (inactive),8.36 µM (inactive),–
